Measurements taken from publication PMC11188740, “A small molecule that inhibits the evolution of antibiotic resistance” (NAR Molecular Medicine, 2024).

Experiments:
Mfd [1] = target: T1, Mfd (Escherichia coli, UniProt P30958); experiment: microscale thermophoresis (His-tag labeled Mfd); also RNAP displacement assay with purified Mfd; assay type: binding
T1 construct: purified His-tagged E. coli Mfd (expressed from pCA24N-Mfd)

Mfd [2] = target: T1, Mfd; experiment: NADH-coupled ATPase assay, Michaelis–Menten Km without ARM-1; assay type: biochemical
Description: NADH-coupled ATPase assay, Michaelis–Menten Km without ARM-1 on Mfd | Kinetic constants of Mfd ATPase activity determined using Michaelis–Menten modeling

T1 sequence (P30958 whole entry): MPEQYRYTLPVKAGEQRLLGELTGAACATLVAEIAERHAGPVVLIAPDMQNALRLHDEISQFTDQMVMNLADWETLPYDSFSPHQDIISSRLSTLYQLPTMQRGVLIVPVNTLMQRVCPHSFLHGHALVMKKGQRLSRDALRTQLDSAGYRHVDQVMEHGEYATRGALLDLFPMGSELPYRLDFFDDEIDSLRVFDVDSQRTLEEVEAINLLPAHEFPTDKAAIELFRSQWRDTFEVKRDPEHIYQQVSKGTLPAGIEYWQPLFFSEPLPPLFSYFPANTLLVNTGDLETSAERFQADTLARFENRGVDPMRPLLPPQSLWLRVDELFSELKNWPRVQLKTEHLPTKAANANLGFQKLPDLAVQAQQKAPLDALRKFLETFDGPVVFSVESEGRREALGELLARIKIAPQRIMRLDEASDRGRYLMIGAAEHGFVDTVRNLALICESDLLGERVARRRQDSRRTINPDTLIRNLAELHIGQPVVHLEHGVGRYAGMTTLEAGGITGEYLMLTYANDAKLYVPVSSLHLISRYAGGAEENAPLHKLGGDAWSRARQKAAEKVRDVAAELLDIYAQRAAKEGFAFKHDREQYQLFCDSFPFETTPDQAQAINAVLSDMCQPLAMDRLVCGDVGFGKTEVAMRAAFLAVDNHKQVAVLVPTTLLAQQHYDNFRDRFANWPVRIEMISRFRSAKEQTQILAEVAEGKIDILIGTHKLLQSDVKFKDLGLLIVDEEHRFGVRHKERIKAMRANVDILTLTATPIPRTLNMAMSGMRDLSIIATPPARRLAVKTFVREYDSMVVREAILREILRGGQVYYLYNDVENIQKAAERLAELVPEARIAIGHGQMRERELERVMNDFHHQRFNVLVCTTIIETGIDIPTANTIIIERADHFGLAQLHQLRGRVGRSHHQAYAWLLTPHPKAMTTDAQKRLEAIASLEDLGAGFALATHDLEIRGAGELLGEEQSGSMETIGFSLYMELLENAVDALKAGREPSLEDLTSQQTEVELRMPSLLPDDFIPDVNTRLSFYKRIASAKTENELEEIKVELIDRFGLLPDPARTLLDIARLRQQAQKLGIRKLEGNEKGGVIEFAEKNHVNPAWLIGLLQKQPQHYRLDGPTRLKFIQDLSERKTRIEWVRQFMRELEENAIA

Row | Compound | Kd (Mfd [1]) | K m / Mean (Mfd [2])
1 | Cc1cc(Br)ccc1-c1ccc(CNCCCN(C)C)o1 [ARM-1] | 4.25 µM | –
2 | Nc1ncnc2c1ncn2[C@@H]1O[C@H](COP(=O)(O)OP(=O)(O)OP(=O)(O)O)[C@@H](O)[C@H]1O [ATP] | – | 0.954
